The results in this text go back to ChEMBL document CHEMBL4304796, “DPP1 Inhibitors: Exploring the Role of Water in the S2 Pocket of DPP1 with Substituted Pyrrolidines” (ACS Med Chem Lett, 2019).

Assay [1] concerns the target T1, Dipeptidyl peptidase 1 (Homo sapiens, UniProt P53634). In words: Inhibition of recombinant human DPPI using H-Gly-Arg-AFC as substrate preincubated for 30 mins followed by substrate addition measured after 60 mins by fluorescence plate reader analysis.
In assay [2] the target is T1, Dipeptidyl peptidase 1. In words: Inhibition of recombinant human DPPI using H-Gly-Arg-AMC as substrate preincubated for 30 mins followed by substrate addition measured after 60 mins by fluorescence plate reader analysis.

T1 sequence (P53634 25-134 limits assumed): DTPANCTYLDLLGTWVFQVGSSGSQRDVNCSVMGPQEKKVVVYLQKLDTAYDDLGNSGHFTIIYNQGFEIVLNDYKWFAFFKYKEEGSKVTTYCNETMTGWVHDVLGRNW
T1 sequence (P53634 231-394 limits assumed): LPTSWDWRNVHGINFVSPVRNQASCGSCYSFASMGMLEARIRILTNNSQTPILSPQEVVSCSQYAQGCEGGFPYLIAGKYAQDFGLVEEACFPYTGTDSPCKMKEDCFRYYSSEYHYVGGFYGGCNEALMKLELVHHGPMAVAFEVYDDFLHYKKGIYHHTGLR
T1 sequence (P53634 395-463 limits assumed): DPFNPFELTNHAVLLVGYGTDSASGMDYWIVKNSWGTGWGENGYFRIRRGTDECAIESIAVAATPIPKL

As usually defined, the IC50 is the concentration that inhibits the measured activity by half. Take `N#Cc1ccc(-c2ccc(C[C@@H](C#N)NC(=O)[C@@H]3CC(F)(F)CN3)cc2)cc1`: the IC50 at Dipeptidyl peptidase 1 [1] was 79.4 nM.

Take `N#Cc1ccc(-c2ccc(C[C@@H](C#N)NC(=O)[C@@H]3C[C@@H](F)CN3)cc2)cc1`: the IC50 on Dipeptidyl peptidase 1 [1] was 631 nM.

Consider `N#Cc1ccc(-c2ccc(C[C@@H](C#N)NC(=O)[C@@H]3C[C@H](O)CN3)cc2)cc1`, for which the IC50 at Dipeptidyl peptidase 1 [1] is 6.31 nM.

As for `N#C[C@H](Cc1ccc(-c2ccccc2)cc1)NC(=O)[C@@H]1C[C@@H](O)CN1`, the concentration for half-maximal inhibition (IC50) at Dipeptidyl peptidase 1 [2] was 158 nM.

`CS[C@@H]1CN[C@H](C(=O)N[C@H](C#N)Cc2ccc(-c3ccc(C#N)cc3)cc2)C1`: at Dipeptidyl peptidase 1 [1], the IC50 was 0.398 nM.

Take `N#Cc1ccc(-c2ccc(C[C@@H](C#N)NC(=O)[C@@H]3C[C@@H](O)CN3)cc2)cc1`: on Dipeptidyl peptidase 1 [2], the concentration for half-maximal inhibition (IC50) is 50.1 nM.

As for `N#Cc1ccc(-c2ccc(C[C@@H](C#N)NC(=O)[C@@H]3CCCN3)cc2)cc1`, the IC50 at Dipeptidyl peptidase 1 [1] is 50.1 nM.

In the case of `N#Cc1ccc(-c2ccc(C[C@@H](C#N)NC(=O)[C@@H]3C[C@H](F)CN3)cc2)cc1`, the IC50 at Dipeptidyl peptidase 1 [1] is 1.58 nM.
